# ChEMBL document CHEMBL1133371, “Amido-(propyl and allyl)-hydroxybenzamidines: development of achiral inhibitors of factor Xa” (Bioorg Med Chem Lett, 2000)
# Columns and labels:
# Coagulation factor X = Coagulation factor X (Homo sapiens, UniProt P00742); assay: In vitro inhibition of coagulation factor Xa.
# Prothrombin = Prothrombin (Homo sapiens, UniProt P00734); assay: In vitro inhibition of coagulation factor IIa.
# Serine protease 1 = Serine protease 1 (Homo sapiens, UniProt P07477); assay: In vitro inhibition of trypsin.
# Homo sapiens = species on record: Homo sapiens; assay: Ability to prolong the activated partial thromboplastin time (APTT) in plasma from human; format: functional, cell-free
# [1] = target: Vitamin K-dependent protein C (Homo sapiens, UniProt P04070); assay: Compound was evaluated for the inhibitory activity against Activated protein C
# Rattus norvegicus = species on record: Rattus norvegicus; assay: Ability to prolong the activated partial thromboplastin time (APTT) in plasma from rat
# [2] = target: Tissue-type plasminogen activator (Homo sapiens, UniProt P00750); assay: Compound was tested for its inhibitory activity against tissue plasminogen activator
# Oryctolagus cuniculus = species on record: Oryctolagus cuniculus; assay: Ability to prolong the activated partial thromboplastin time (APTT) in plasma from rabbit
# Plasminogen = Plasminogen (Homo sapiens, UniProt P00747); assay: Compound was tested for its inhibitory activity against Plasmin
# Canis lupus familiaris = species on record: Canis lupus familiaris; assay: Ability to prolong the activated partial thromboplastin time (APTT) in plasma from dog
# Chain of Tissue-type plasminogen activator (P00750 whole entry): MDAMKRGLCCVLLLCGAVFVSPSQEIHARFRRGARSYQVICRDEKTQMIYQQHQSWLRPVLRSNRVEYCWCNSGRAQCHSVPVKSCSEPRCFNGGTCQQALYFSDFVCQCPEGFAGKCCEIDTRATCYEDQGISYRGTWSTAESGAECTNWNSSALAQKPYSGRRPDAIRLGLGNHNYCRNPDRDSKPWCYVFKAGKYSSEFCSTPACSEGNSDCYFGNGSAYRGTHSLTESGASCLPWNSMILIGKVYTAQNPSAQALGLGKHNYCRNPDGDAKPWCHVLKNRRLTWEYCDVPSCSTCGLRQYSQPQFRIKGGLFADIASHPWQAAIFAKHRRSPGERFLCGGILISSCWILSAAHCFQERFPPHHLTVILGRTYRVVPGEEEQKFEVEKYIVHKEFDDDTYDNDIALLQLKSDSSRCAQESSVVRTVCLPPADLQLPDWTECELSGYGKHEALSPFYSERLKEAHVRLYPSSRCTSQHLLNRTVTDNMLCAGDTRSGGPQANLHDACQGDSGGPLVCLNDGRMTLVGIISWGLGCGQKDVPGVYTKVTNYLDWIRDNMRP
# Chain of Coagulation factor X (P00742 41-179 limits assumed): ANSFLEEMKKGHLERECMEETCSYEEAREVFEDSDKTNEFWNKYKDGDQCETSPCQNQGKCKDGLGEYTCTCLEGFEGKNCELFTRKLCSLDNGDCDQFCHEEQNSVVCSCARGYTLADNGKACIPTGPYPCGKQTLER
# Chain of Coagulation factor X (P00742 235-488 limits assumed): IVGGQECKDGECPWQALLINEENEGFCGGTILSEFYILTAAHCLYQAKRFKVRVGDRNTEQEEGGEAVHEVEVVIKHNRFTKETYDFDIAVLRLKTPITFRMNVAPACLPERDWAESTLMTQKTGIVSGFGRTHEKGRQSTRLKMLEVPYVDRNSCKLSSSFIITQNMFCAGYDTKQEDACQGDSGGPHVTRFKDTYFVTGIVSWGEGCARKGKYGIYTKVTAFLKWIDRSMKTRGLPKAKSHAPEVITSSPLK
# Chain of Plasminogen (P00747 97-580 limits assumed): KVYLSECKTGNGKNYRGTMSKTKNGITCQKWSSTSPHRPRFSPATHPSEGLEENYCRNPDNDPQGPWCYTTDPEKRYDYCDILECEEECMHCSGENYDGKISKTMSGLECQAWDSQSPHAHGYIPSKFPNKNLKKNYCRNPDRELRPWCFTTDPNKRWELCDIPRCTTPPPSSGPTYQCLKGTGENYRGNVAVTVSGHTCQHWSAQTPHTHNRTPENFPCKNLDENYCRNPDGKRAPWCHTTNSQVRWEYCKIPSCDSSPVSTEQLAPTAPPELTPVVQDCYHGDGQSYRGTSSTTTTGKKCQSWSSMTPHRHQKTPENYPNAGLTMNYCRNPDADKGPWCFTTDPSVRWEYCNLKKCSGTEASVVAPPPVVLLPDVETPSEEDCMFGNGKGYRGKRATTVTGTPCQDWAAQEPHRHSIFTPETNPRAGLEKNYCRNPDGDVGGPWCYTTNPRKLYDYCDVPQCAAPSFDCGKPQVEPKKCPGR
# Chain of Plasminogen (P00747 581-810 limits assumed): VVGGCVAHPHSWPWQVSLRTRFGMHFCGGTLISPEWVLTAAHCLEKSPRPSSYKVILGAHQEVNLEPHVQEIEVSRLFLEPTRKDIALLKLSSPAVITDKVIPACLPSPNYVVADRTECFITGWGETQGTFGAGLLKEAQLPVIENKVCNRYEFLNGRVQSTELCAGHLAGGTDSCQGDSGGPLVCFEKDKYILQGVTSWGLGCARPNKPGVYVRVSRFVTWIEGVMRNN
# Chain of Vitamin K-dependent protein C (P04070 43-197 limits assumed): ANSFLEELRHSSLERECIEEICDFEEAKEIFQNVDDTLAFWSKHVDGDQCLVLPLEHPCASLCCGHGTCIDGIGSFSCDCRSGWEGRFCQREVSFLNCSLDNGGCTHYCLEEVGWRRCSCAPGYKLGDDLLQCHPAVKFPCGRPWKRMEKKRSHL
# Chain of Vitamin K-dependent protein C (P04070 212-461 limits assumed): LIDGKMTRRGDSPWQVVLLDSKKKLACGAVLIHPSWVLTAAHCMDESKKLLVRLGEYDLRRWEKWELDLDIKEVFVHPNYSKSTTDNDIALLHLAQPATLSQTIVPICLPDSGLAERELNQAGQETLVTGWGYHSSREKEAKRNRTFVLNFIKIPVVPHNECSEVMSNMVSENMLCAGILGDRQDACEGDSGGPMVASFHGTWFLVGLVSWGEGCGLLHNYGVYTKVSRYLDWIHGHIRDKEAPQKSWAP
# Chain of Serine protease 1 (P07477 whole entry): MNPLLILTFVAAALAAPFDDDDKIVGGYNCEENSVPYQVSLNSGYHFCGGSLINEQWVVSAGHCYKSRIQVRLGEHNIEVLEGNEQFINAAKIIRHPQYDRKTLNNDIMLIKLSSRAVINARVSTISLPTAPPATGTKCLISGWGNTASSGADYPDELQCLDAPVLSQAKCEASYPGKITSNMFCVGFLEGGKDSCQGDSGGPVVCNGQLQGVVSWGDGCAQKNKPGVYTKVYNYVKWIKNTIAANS
Structure (SMILES),Ki (Coagulation factor X),Ki (Prothrombin),Ki (Serine protease 1),further results
CC(C)(C)c1ccc(C(=O)NC/C=C/c2cc(C(=N)N)ccc2O)cc1,0.061 µM,3.2 µM,2.3 µM,
N=C(N)c1ccc(O)c(/C=C/CNC(=O)c2ccc(-c3ccccn3)s2)c1,0.037 µM,> 4 µM,1.4 µM,
N=C(N)c1ccc(O)c(CCCNC(=O)c2ccc(-c3cccnc3)cc2)c1,0.038 µM,> 4 µM,1.9 µM,
N=C(N)c1ccc(O)c(/C=C/CNC(=O)c2ccc(-c3ccc(C(N)=O)cc3)cc2)c1,0.02 µM,2.9 µM,1.4 µM,
N=C(N)c1ccc(O)c(CCCNC(=O)c2ccc(-c3ccccn3)s2)c1,0.131 µM,> 4 µM,> 2.9 µM,
CC(C)(C)c1ccc(C(=O)NCCCc2cc(C(=N)N)ccc2O)cc1,0.059 µM,> 4 µM,2.2 µM,
N=C(N)c1ccc(O)c(/C=C/CNC(=O)c2ccc(-c3ncc[nH]3)cc2)c1,0.128 µM,> 4 µM,1.4 µM,
N=C(N)c1ccc(O)c(CCCNC(=O)c2ccc(-c3ccccc3)cc2)c1,0.088 µM,> 4 µM,> 2.9 µM,
N=C(N)c1ccc(O)c(CCCNC(=O)c2ccc(-c3ncc[nH]3)cc2)c1,0.058 µM,> 4 µM,~2.9 µM,
N=C(N)c1ccc(O)c(/C=C/CNC(=O)c2ccc(-c3c[nH]cn3)cc2)c1,0.019 µM,> 4 µM,1.8 µM,
N=C(N)c1ccc(O)c(/C=C/CNC(=O)c2cc3nnc(O)cc3s2)c1,0.184 µM,> 4 µM,1.4 µM,
N=C(N)c1ccc(O)c(CCCNC(=O)c2ccc(-c3c[nH]cn3)cc2)c1,0.254 µM,> 4 µM,~2.9 µM,
N=C(N)c1ccc(O)c(/C=C/CNC(=O)c2ccc(-c3ccccc3)cc2)c1,0.051 µM,> 4 µM,> 2.9 µM,
N=C(N)c1cccc(CCCNC(=O)c2ccc(-c3ccccc3)cc2)c1,1 µM,,,
N=C(N)c1ccc(O)c(CCCNC(=O)c2cc3ccc(Cl)cc3s2)c1,0.181 µM,~4 µM,> 2.9 µM,

# Stronger by Ki (Coagulation factor X), values ahead:
Ki (Coagulation factor X),Ki (Prothrombin),Ki (Serine protease 1),Structure (SMILES),further results
0.012 µM,> 4 µM,1.6 µM,N=C(N)c1ccc(O)c(/C=C/CNC(=O)c2ccc(-c3ccc(S(N)(=O)=O)cc3)cc2)c1,
0.009 µM,> 4 µM,0.24 µM,N=C(N)c1ccc(O)c(/C=C/CNC(=O)c2ccc(-c3cccc(S(N)(=O)=O)c3)cc2)c1,
0.007 µM,> 4 µM,> 2.9 µM,N=C(N)c1ccc(O)c(CCCNC(=O)c2ccc(-c3cccc(C(N)=O)c3)cc2)c1,Ki [1]: 15 µM; Ki [2]: > 8.7 µM; Ki (Plasminogen): 3.5 µM
0.005 µM,,,COC(=O)[C@H](Cc1cccc(C(=N)N)c1)[C@@H](C)NC(=O)c1ccc(-c2ccccc2)cc1,
0.005 µM,> 4 µM,> 2.9 µM,N=C(N)c1ccc(O)c(/C=C/CNC(=O)c2ccc(-c3cccc(C(N)=O)c3)cc2)c1,
0.002 µM,> 4 µM,1.5 µM,N=C(N)c1ccc(O)c(/C=C/CNC(=O)c2ccc(-c3ccccc3S(N)(=O)=O)cc2)c1,
0.00075 µM,> 4 µM,2.2 µM,N=C(N)c1ccc(O)c(/C=C/CNC(=O)c2ccc(-c3ccnc(C(N)=O)c3)cc2)c1,Concentration (Homo sapiens): 0.87 µM; Ki [1]: ~18.5 µM; Concentration (Rattus norvegicus): 1.7 µM; Ki [2]: 7.7 µM; Concentration (Oryctolagus cuniculus): 0.51 µM; Ki (Plasminogen): > 7.3 µM; Concentration (Canis lupus familiaris): 0.99 µM
0.0005 µM,,,COC(=O)[C@H](Cc1cccc(C(=N)N)c1)[C@@H](C)NC(=O)c1ccc(-c2cccc(C(N)=O)c2)cc1,Ki [1]: > 18.5 µM; Ki [2]: > 8.7 µM; Ki (Plasminogen): 0.14 µM
